Series [1] concerns rat thymocytes. Nature of the series: Cell viability of rat thymocytes by CCK-8 assay. To be noted: 24 h, absorbance ratio to control cells, mean ± SD. In kind it is cell-based. The method, then:
(§1) Experiments were performed on adult male Wistar rats (150−180 g), 8−10 weeks old, bred at the Vivarium of the Institute of Biomedical Research, Medical Faculty, Nis, Serbia, under conventional laboratory conditions and in accordance with national animal protection guidelines.
(§2) Rat thymocytes were isolated as described previously. The viability of the isolated cells, as determined by trypan blue dye exclusion test, was always over 95%. Isolated thymocytes were counted and adjusted to a density of 5 × 10^6 cells/mL of CM.
(§3) Isolated thymocytes were cultivated in 96-well round-bottom plates (NUNC, Aarhus, Denmark), containing a 100 µL of cell suspension (5 × 10^5 cells) in each well. […] Control samples were cultured in CM, with appropriate amounts of 96% ethanol (9.6%). Concentrations of tested substances used in our study were adopted from our previous report, regarding the effect of different compounds on thymocytes toxicity. All cell cultures were done in triplicates and cultivated for 24 h in an incubator (Galaxy, Wolf Laboratories, Pocklington, UK) with 5% CO2 at 37 °C.
Cell viability of rat thymocytes, after cultivation period, was evaluated by CCK-8 assay as was previously described. Ten µL of reaction mixture was added in each well. After 2 h of incubation, the solubilized formazan product was quantified spectrophotometrically, by using a microplate reader Perkin-Elmer (Wallac Victor^2V, Turku, Finland). Absorbance was measured at 450 nm. For each sample, basal intensity values were subtracted from those obtained after different treatments. Absorbances were presented as ratio for comparison with control samples.
In general terms: Tetrazolium assays rely on reduction of a dye to a coloured formazan, in cell work by metabolically active cells.

Series [2] concerns rat thymocytes. Kind of series: Intracellular ROS production in rat thymocytes (H2DCF-DA probe). It counts as cell-based. The note with it: 24 h, ratio of mean fluorescence intensity to control, mean ± SD. The method, then: as §1, §2, §3
A redox-sensitive probe (H2DCF-DA) was used to determine changes in overall cellular ROS levels, as described previously. The change in fluorescence (excitation 485 nm; emission 530 nm) was measured using a Perkin-Elmer fluorimeter (Wallac Victor^2V). For each sample, basal fluorescence intensity values were subtracted from those obtained after different treatments and results were presented as ratio of mean fluorescence intensity (MFI).

For series [3], the system named is rat thymocytes. Nature of the series: Mitochondrial membrane potential of rat thymocytes (Rhodamine 123 uptake). It counts as cell-based. To be noted: 24 h, ratio of mean fluorescence intensity to control, mean ± SD. The method, then:
Experiments were performed on adult male Wistar rats (150−180 g), 8−10 weeks old, bred at the Vivarium of the Institute of Biomedical Research, Medical Faculty, Nis, Serbia, under conventional laboratory conditions and in accordance with national animal protection guidelines. Rat thymocytes were isolated as described previously. The viability of the isolated cells, as determined by trypan blue dye exclusion test, was always over 95%. Isolated thymocytes were counted and adjusted to a density of 5 × 10^6 cells/mL of CM. […] Control samples were cultured in CM, with appropriate amounts of 96% ethanol (9.6%). Concentrations of tested substances used in our study were adopted from our previous report, regarding the effect of different compounds on thymocytes toxicity. All cell cultures were done in triplicates and cultivated for 24 h in an incubator (Galaxy, Wolf Laboratories, Pocklington, UK) with 5% CO2 at 37 °C. […] The fluorescence of intracellular Rhodamine 123 (excitation 485 nm; emission 530 nm) was measured by Perkin-Elmer fluorimeter, as published earlier. For each sample, basal fluorescence intensity values were subtracted from those obtained after different treatments and results were presented as ratio of mean fluorescence intensity (MFI).

Series [4] relates to human acute monocytic leukemia cell line (THP-1). To be noted: tested as essential oil, lower concentrations than in this study, trypan blue viability assay; cited from earlier work.

SMILES strings stand for the structures.

The source of these data is publication PMC6268831 (Molecules, 2012).

As for `CC1(C)C2CCC1(C)C(O)C2` (stereo not shown) [Borneol, 4,7,7-trimethylbicyclo[2.2.1]heptan-3-ol], the “Cytotoxicity (CCK-8 assay)” value turned out to be 1.067 ± 0.004 in the series on rat thymocytes [1] (0.5 µg/mL), 1.070 ± 0.015 in the series with rat thymocytes [1] (5 µg/mL) and 0.975 ± 0.144 in the series with rat thymocytes [1] (50 µg/mL). In addition, the “Intracellular ROS production” value is given as 1.268 ± 0.102 with rat thymocytes [2] (0.5 µg/mL), 1.224 ± 0.108 in the series with rat thymocytes [2] (5 µg/mL) and 1.164 ± 0.191 in the series on rat thymocytes [2] (50 µg/mL). Further, the Mitochondrial membrane potential in the series with rat thymocytes [3] (0.5 µg/mL) came to 0.799 ± 0.022; in the series on rat thymocytes [3] (5 µg/mL), 0.856 ± 0.084; in the series with rat thymocytes [3] (50 µg/mL), 0.876 ± 0.110.
As for `CC12CCC(CC1=O)C2(C)C` (stereo not shown) [Camphor, 4,7,7-trimethylbicyclo[2.2.1]heptan-3-one], the “Cytotoxicity (CCK-8 assay)” value with rat thymocytes [1] (0.5 µg/mL) turned out to be 0.927 ± 0.132; in the series with rat thymocytes [1] (5 µg/mL) it was 1.024 ± 0.083; in the series with rat thymocytes [1] (50 µg/mL) it was 1.111 ± 0.033. Also, the “Intracellular ROS production” value worked out at 1.413 ± 0.068 with rat thymocytes [2] (0.5 µg/mL), 1.399 ± 0.093 in the series on rat thymocytes [2] (5 µg/mL) and 1.251 ± 0.049 in the series with rat thymocytes [2] (50 µg/mL). In addition, the values for the Mitochondrial membrane potential in the series with rat thymocytes [3] (0.5 µg/mL), in the series with rat thymocytes [3] (5 µg/mL) and in the series with rat thymocytes [3] (50 µg/mL) were 0.740 ± 0.071, 0.919 ± 0.047 and 0.925 ± 0.132, respectively. Further, the “Toxic effect on THP-1 cells” value in series [4] is listed as “no significant toxic effect”.
